This is an account of results in article PMC7015794 (Biochemistry, 2020).

As usually defined, the IC50 is the concentration that gives 50% inhibition. A higher IC50 goes with weaker potency.

In assay [1] the target is T1, (1,3)-β-D-glucan synthase (GS), catalytic subunit Fks1p (Saccharomyces cerevisiae, UniProt P38631). The experiment in a line: GS activity assay. The format is biochemical.
Assay [2] concerns the target T1, (1,3)-β-D-glucan synthase (GS), catalytic subunit Fks1p. The assay can be described thus: GS activity assay with […] UDP-Glc. The format is biochemical.

T1 sequence (P38631 whole entry): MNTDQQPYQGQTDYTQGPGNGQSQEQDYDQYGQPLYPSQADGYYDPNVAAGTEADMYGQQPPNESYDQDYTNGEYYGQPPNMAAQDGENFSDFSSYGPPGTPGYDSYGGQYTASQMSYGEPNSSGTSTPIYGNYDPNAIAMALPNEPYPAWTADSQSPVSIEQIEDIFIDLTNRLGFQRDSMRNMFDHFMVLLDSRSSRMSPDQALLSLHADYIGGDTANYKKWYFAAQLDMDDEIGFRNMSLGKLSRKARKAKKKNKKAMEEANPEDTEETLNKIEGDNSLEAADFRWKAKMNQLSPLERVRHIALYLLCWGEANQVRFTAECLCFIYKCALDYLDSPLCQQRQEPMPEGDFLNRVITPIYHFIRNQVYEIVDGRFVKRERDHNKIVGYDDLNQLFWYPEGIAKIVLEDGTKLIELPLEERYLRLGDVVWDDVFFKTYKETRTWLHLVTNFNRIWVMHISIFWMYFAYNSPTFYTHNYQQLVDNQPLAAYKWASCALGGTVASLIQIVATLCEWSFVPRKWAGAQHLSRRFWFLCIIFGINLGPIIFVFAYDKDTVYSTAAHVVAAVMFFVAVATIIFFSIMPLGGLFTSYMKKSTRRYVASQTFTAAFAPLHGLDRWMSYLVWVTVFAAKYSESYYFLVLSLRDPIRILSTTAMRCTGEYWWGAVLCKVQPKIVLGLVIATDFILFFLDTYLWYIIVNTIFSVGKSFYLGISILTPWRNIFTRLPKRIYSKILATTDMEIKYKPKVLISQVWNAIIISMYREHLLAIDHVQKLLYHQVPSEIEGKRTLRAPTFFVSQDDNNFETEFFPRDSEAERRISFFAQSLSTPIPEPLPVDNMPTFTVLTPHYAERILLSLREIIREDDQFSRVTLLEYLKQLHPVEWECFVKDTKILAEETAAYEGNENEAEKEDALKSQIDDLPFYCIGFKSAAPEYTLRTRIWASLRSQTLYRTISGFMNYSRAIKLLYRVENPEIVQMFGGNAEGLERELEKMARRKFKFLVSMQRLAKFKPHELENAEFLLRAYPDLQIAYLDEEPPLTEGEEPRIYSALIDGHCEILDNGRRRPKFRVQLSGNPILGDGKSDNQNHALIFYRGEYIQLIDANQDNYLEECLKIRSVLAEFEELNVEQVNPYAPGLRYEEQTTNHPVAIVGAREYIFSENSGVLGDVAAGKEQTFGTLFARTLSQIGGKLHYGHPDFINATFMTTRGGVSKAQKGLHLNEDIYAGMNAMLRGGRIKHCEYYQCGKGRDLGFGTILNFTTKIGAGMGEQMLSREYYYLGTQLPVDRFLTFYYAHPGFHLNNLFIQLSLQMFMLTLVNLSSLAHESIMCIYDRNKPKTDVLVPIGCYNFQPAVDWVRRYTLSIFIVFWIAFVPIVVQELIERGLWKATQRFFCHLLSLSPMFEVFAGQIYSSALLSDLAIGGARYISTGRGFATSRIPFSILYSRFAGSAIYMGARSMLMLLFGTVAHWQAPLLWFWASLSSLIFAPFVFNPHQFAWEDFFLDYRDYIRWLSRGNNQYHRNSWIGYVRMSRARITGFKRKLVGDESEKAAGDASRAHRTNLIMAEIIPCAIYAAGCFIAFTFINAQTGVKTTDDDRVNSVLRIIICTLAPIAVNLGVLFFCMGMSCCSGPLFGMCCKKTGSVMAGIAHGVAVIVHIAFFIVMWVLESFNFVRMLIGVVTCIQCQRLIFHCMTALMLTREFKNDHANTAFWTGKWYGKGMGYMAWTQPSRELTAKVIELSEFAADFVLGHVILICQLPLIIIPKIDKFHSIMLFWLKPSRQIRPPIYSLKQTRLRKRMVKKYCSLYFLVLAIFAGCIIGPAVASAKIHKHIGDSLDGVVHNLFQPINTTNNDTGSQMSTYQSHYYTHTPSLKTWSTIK
T1 sequence (P06780 2-206, further chain): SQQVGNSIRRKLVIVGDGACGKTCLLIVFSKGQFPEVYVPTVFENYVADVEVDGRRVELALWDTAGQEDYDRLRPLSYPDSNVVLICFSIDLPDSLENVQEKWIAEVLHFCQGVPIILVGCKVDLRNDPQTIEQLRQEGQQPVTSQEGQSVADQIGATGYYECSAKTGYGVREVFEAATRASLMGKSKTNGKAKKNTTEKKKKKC

As to `CC[C@H](C)C[C@H](C)CCCCCCCCC(=O)N[C@H]1C[C@@H](O)[C@@H](NCCN)NC(=O)[C@@H]2[C@@H](O)CCN2C(=O)[C@H]([C@H](O)CCN)NC(=O)[C@H]([C@H](O)[C@@H](O)c2ccc(O)cc2)NC(=O)[C@@H]2C[C@@H](O)CN2C(=O)[C@H]([C@@H](C)O)NC1=O` [CFN, caspofungin], the IC50 in assay [1] was 0.238 µM. This counts as sub-micromolar.

Regarding `O=c1ccn([C@@H]2O[C@H](COP(=O)(O)OP(=O)(O)O[C@H]3O[C@H](CO)[C@@H](O)[C@H](F)[C@H]3O)[C@@H](O)[C@H]2O)c(=O)[nH]1` [UDP-3’-F-Glc], the IC50 in assay [2] amounted to 5300 ± 1000 µM.

In assay [2], `O=c1ccn([C@@H]2O[C@H](COP(=O)(O)OP(=O)(O)O[C@H]3O[C@H](CO)[C@@H](O)C[C@H]3O)[C@@H](O)[C@H]2O)c(=O)[nH]1` [UDP-3’-dGlc] yielded an IC50 of 2400 ± 200 µM.
